# Values of other authors as cited in US6689905B2, “Stereoisomers of 3-aminotricyclo[2.2.1.0(2.6)]heptane-1,3-dicarboxylic acid” (Wyeth, priority 2001, dated 2004).
# Target: type 2 mGlu receptors (Homo sapiens, UniProt Q14416)
# Details: literature description
# Chain of type 2 mGlu receptors (Q14416 19-872): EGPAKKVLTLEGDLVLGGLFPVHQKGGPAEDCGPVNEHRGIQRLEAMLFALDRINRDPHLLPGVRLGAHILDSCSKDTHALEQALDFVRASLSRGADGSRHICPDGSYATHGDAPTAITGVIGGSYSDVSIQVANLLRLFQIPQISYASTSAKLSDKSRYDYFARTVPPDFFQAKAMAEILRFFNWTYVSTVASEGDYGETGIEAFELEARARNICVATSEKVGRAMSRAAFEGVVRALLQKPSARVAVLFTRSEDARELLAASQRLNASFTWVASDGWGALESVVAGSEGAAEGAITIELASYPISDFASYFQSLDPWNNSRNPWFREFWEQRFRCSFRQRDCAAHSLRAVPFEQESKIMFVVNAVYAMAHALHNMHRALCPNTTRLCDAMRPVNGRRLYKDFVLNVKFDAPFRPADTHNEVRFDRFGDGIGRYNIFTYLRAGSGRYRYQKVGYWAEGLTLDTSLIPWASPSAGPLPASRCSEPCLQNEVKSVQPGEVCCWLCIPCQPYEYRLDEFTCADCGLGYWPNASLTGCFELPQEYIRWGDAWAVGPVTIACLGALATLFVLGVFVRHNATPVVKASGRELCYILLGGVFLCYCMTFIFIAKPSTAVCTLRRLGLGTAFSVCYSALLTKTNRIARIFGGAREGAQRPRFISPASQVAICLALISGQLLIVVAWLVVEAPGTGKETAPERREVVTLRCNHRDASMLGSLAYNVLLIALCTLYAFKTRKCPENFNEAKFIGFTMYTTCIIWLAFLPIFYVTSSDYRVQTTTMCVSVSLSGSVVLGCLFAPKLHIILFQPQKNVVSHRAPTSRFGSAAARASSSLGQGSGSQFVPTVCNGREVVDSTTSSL
smiles,measurement,value
"NC1(C(=O)O)CC2CCC1C2C(=O)O (stereo not drawn) [ABHD-I, 2-endo-aminobicyclo[2.2.1]heptane-2-exo-7-anti-dicarboxylic acid]",functional character at type 2 mGlu receptors,agonists
